Measurements published in patent US4600788A, “4'-flavonecarboxylic acids and pharmaceutically acceptable derivatives their preparation, and their application” (Societe Cortial, S.A., priority 1983, dated 1986).
Structures can show the parent of a compound that is named as a salt. One block for each compound: values may come before it.

Key:
aldose reductase = molecular target: T1, aldose reductase (Bos taurus, UniProt P16116); assay: Inhibition of aldose reductase in vitro (reduction of glyceraldehyde to glycerol, spectrophotometric NADPH determination); assay type: biochemical; conditions: enzyme from beef crystalline lens; substrate glyceraldehyde; read-out: log 1/CI50 (CI50 = concentration in mole/l resulting in 50% inhibition of the enzymatic activity) (converted)
T1 construct: The enzyme is extracted from beef crystalline lens; from tissue; host or cells: beef crystalline lens
Procedure: The enzyme is extracted from beef crystalline lens by the method described by Hayman S. and Kinoshita J. H. (J. Biol Chem., 1965, 240, 2,877). The percentage of inhibition of the capacity of the enzyme to reduce glyceraldehyde to glycerol under the effect of the product to be tested is determined by the spectrophotometric determination of the amount of NADPH reacting according to the method described by Hayman and Kinoshita. We give below in parentheses after each product the value of the log 1/CI50 where CI50 represents the concentration expressed in mole/l resulting in 50% inhibition of the enzymatic activity: COR 19 85 (4.9); COR 19 91 (5.5); COR 19 93 (5.1); COR 19 94 (5.2); COR 19 99 (5.4); COR 35 01 (6.9); COR 35 02 (5.15); COR 35 07 (6.3); COR 35 09 (5.7); COR 35 11 (5.9); COR 35 19 (5.8); COR 35 22 (5.2).

mice = assay: Toxicity in mice; assay type: in vivo; conditions: for LD0: orally
Toxicity in mice = assay type: in vivo; conditions: mouse, in vivo
rats [1] = assay: Neuropathy with streptozotocin: sorbitol and inositol levels in sciatic nerves, glycemia; assay type: in vivo; conditions: 100 mg/kg/d
Procedure: Four batches of 10 rats weighing about 200 g were treated from D-2 to D+3 with a gummy julep of the product to be tested. On D O the animals received an i.p. injection of 100 mg/kg of streptozotocin dissolved in a citrate buffer. The glycemia of the rats was determined 24 hours and 3 days after injection of the streptozotocin and the sciatic nerves were removed to determine the sorbitol and inositol levels. […] COR 35 01 had no effect on the glycemia of the animals.

rats [2] = assay: Galactose cataracts: degree of cataract marked 0 to 3 by ophthalmoscope; assay type: in vivo; conditions: 20% galactose diet, 100 mg/kg d
Procedure: Rats, 14 days old, were kept in a cage of 11 with a mother for 3 days. From the 4th to the 9th day, the animals received the product to be tested or the reference product. At the end of pretreatment, the mothers were removed. Two out of the 11 animals were eliminated to obtain batches of homogenous weight. The selected rats were divided 3 by 3 into cages at random, and the diet containing 20% galactose was put in place. […] The degree of cataract was evaluated by a marking system from 0 to 3.
The marks given to the treated animals were compared with those of the control animals by the Mann and Whitney U test (D. Schwartz, "Statistical Methods for the Use of Physicians and Biologists," Ed. Flammarion, Paris, 1963).

rats [3] = assay: Diuretic activity, method of Lipschitz et coll.; assay type: in vivo; conditions: oral administration of 20 mg/kg
Procedure: Besides their advantage in curative and preventive therapy of complications from diabetes, the products, which are the object of this invention, are also useful as diuretics. Thus, product COR35 07, tested in rats according to the method of Lipschitz et coll.(J. Pharm. Exp. Therap., 1943, 79, 97-110), results in an increase in urinary excretion of sodium (natruria was multiplied by 2.6 after oral administration of 20 mg/kg).

SMILES: CCCc1c(-c2ccc(C(=O)O)cc2)oc2cc(NC(C)=O)ccc2c1=O [COR 19 91, 7-acetamido-3-propyl-4'-flavonecarboxylic acid]
IC50 (aldose reductase): 3.16 µM
LD0 (mice): more than 2000 mg/kg

SMILES: CC(=O)Nc1ccc2c(=O)cc(-c3ccc(C(=O)O)cc3)oc2c1 [COR 19 85, 7-acetamido-4'-flavonecarboxylic acid]
IC50 (aldose reductase): 12.6 µM

SMILES: CCCc1c(-c2ccc(C(=O)OC)cc2)oc2cc(NC(=O)CN3CCOCC3)ccc2c1=O [COR35 17, methyl 7-(morpholinoacetamido)-3-propyl-4'-flavonecarboxylate]
mortality (Toxicity in mice; oral administration of 1000 mg/kg): 10%

SMILES: CC(=O)Nc1ccc2c(=O)c(OC(C)=O)c(-c3ccc(C(=O)O)cc3)oc2c1 [COR 19 94, 7-Acetamido-3-acetoxy-4'-flavonecarboxylic acid]
IC50 (aldose reductase): 6.31 µM
LD0 (mice): more than 2000 mg/kg

SMILES: CCCc1c(-c2ccc(C(=O)O)cc2)oc2cc(NS(C)(=O)=O)ccc2c1=O [COR 35 01, 7-methanesulfonamido-3-propyl-4'-flavonecarboxylic acid]
IC50 (aldose reductase): 0.126 µM
sorbitol level in the sciatic nerves (rats [1]; D-2 to D+3, control 0.983±0.334): 0.426 ± 0.171 mg/kg
inositol level in the sciatic nerves (rats [1]; D-2 to D+3, control 1.6555±0.372): 1.184 ± 0.340 mg/kg
mortality (Toxicity in mice; ip, intraperitoneally, 500 mg/kg): 20%
mortality (mice; intraperitoneally, 250 mg/kg): did not cause any mortality
LD0 (mice): more than 2000 mg/kg

SMILES: CCc1c(-c2ccc(C(=O)O)cc2)oc2cc(NC(C)=O)ccc2c1=O [COR 19 93, 7-acetamido-3-ethyl-4'-flavonecarboxylic acid]
IC50 (aldose reductase): 7.94 µM

SMILES: COC(=O)c1ccc(-c2oc3cc(NS(C)(=O)=O)ccc3c(=O)c2OS(C)(=O)=O)cc1 [COR 35 07, methyl 7-methanesulfonamido-3-methanesulfonyloxy-4'-flavonecarboxylate]
IC50 (aldose reductase): 0.501 µM
natruria multiplied by (increase in urinary excretion of sodium) (rats [3]): 2.6

SMILES: CCCc1c(-c2ccc(C(=O)O)cc2)oc2cc(NC(=O)CN3CCOCC3)ccc2c1=O [COR 35 02, 7-morpholinoacetamido-3-propyl-4'-flavonecarboxylic acid hydrochloride]
IC50 (aldose reductase): 7.08 µM

Further lines, with some results ahead:

IC50 (aldose reductase): 3.98 µM
SMILES: CCCc1c(-c2ccc(C(=O)OC)cc2)oc2cc(NS(C)(=O)=O)ccc2c1=O [COR 19 99, methyl 7-methanesulfonamido-3-propyl-4'-flavonecarboxylate]

IC50 (aldose reductase): 1.26 µM
SMILES: CCCc1c(-c2ccc(C(=O)O)cc2)oc2cc(S(=O)(=O)NC)ccc2c1=O [COR 35 11, N-7-methylsulfamoyl-3-propyl-4'-flavonecarboxylic acid]

IC50 (aldose reductase): 2 µM
SMILES: CCCc1c(-c2ccc(C(=O)O)cc2)oc2cc(S(=O)(=O)N(C)C)ccc2c1=O [COR 35 09, N,N-7-dimethylsulfamoyl-3-propyl-4'-flavonecarboxylic acid]
galactose cataract average index D + 1 (rats [2]; D+1, marks 0 to 3): 0.0
galactose cataract average index D + 2 (rats [2]; D+2, marks 0 to 3): 0.0
galactose cataract average index D + 3 (rats [2]; D+3, marks 0 to 3): 0.031
galactose cataract average index D + 4 (rats [2]; D+4, marks 0 to 3, S): 0.47
galactose cataract average index D + 5 (rats [2]; D+5, marks 0 to 3, S): 0.97
galactose cataract average index D + 6 (rats [2]; D+6, marks 0 to 3, S): 1.44
galactose cataract average index D + 7 (rats [2]; D+7, marks 0 to 3, S): 1.69
galactose cataract average index D + 8 (rats [2]; D+8, marks 0 to 3, S): 1.81
galactose cataract average index D + 9 (rats [2]; D+9, marks 0 to 3, S): 2.06
galactose cataract average index D + 10 (rats [2]; D+10, marks 0 to 3, S): 1.88
galactose cataract average index D + 11 (rats [2]; D+11, marks 0 to 3, S): 1.69
galactose cataract average index D + 12 (rats [2]; D+12, marks 0 to 3, S): 1.81
galactose cataract average index D + 13 (rats [2]; D+13, marks 0 to 3, S): 1.50

IC50 (aldose reductase): 1.58 µM
SMILES: CCCc1c(-c2ccc(C(=O)O)cc2)oc2cc(S(=O)(=O)N(C)CCO)ccc2c1=O [COR 35 19, 7-(N-hydroxyethyl N-methylsulfamoyl)-3-propyl-4'-flavonecarboxylic acid]

IC50 (aldose reductase): 6.31 µM
SMILES: CCCc1c(-c2ccc(C(=O)O)cc2)oc2cc(S(N)(=O)=O)ccc2c1=O [COR 35 22, 7-sulfamoyl-3-propyl-4'-flavonecarboxylic acid]
